Measured values taken from paper PMC10959927, “Platinum iodido drugs show potential anti-tumor activity, affecting cancer cell metabolism and inducing ROS and senescence in gastrointestinal cancer cells” (Communications Biology, 2024).
Where “and” joins values, the source holds several entries; their conditions need not be identical. Equal entries are not always repeated.

Tests used:
CC2509 fibroblasts = experiment: Cell viability, crystal violet staining, non-tumoral cells; details: CC2509, 48 h
Description: (§1) Cell viability was assessed using a crystal violet-based staining method. […] The cells (2 × 10^5) were seeded in 24-multiwell dishes in 0.5 mL of complete medium and incubated overnight. […] After 48 h, cells were fixed with 1% glutaraldehyde (20–30 min), washed with distilled water, and stained with 0.1% crystal violet. […] IC50 were calculated by using GraphPad Prism (version 8.0). Nonlinear regression was used to fit the data to the log (inhibitor) versus response (variable slope).

HPDE cells = experiment: as above; details: for percentage of viable cells: 48 h
Description: as §1

[1] = test system: telomeres, 36B4, MT-COX1, MT-CYB DNA of MKN45 cells; experiment: Oxidized bases (FPG-sensitive lesions) in genome regions by qPCR; type: cell-based, human; details: MKN45, IC50 concentration 24 h, normalized to control, single replicates
Source text: (§2) Total cellular DNA from MKN45 and PANC1 cells was extracted using an NZY Tissue gDNA Isolation Kit (Nzytech, MB13503) following the manufacturer’s instructions and quantified using a Nanodrop (Nanodrop Spectrophotometer ND-1000, ThermoFisher Scientific, Wilmington, DE, USA). We adapted the procedure described by O’Callaghan et al.[76] to measure oxidative DNA damage at telomeres, 36B4 genomic region and at mitochondrial DNA (MT-COX1, MT-CYB). This is a qPCR method based on differences in PCR kinetics between DNA template digested by Formamidopyrimidine DNA Glycosylase (FPG, Cat no. M0240S) and undigested DNA. This enzyme recognizes and cuts 8-oxoguanine, producing apurinic sites that are converted into single-strand breaks by its apurinic sites lyase activity. These single-strand breaks inhibit the PCR, thus, the ΔCT after digesting DNA by […] (Ct digested–Ct undigested) is proportional to the oxidative damage in the amplified region. DNA was incubated with 8 Units of FPG during 3 h in FPG buffer (NEB1, M0240S). The reaction was stopped by incubation at 95 °C for 5 min. qPCR analysis was performed on 40 ng of digested or undigested genomic DNA. Each qPCR was performed in triplicate including no-template controls in a StepOne Real‐time PCR System (Applied Biosystems, 4376357). Target genes (Table 3) were amplified using SYBR Green (Applied Biosystems, MB345). Thermal cycling of the qPCR reaction was initiated with a denaturation step at 95 °C for 10 min. The process consisted of 40 cycles (denaturation at 95 °C for 15 sec, annealing at 60 °C for 30 sec, and elongation at 72 °C for 30 sec). This experiment was repeated three independent times with 10–12 replicates.

[2] = test system: telomeres, 36B4, MT-COX1, MT-CYB DNA of PANC1 cells; experiment: as above; type: cell-based, human; details: PANC1, IC50 concentration 24 h, normalized to control, single replicates
Source text: as §2

AGS cells [3] = experiment: Immunofluorescence of γ-H2AX and 53BP1 foci; type: cell-based, human; details: for foci/cell, share of cells in class (Suma 100) / foci/cell, number of cells in class: Fig. 3B; for foci/cell, number of cells in class: cell count
Description: (§3) Cells (7 × 10^4) were seeded on 20 mm coverslips. […] Coverslips were incubated for 1 h with the primary antibody (Cell Signaling: H2AX Ser139 (#2595) and 53BP1 (#4937)) at room temperature, followed by a 1 h incubation with the appropriate secondary antibody. DNA was stained with DAPI. Fluorescence microscopy was performed using a NIKON Eclipse 90i. The image analysis was performed using the software program Nikon NIS-Elements and Image J.

PANC1 cells [4] = experiment: Immunofluorescence of γ-H2AX and 53BP1 foci; type: cell-based, human; details: for foci/cell, share of cells in class (Suma 100) / foci/cell, number of cells in class: PANC1, Fig. 3B; for foci/cell, number of cells in class: cell count
Description: as §3

AGS cells [5] = experiment: SA-β-Gal activity, CellEvent Senescence Green flow cytometry;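 also: IC50 concentration of each compound relative to untreated control set as 1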; type: cell-based, human; details: Fig. 3A, replicate values
Description: (§4) SA-β-Gal activity was measured following two different approaches. (i) AGS, MKN45 and PANC1 cells (5 × 10^4) were seeded in 24-multiwell dishes and incubated overnight. […] For flow cytometry cell senescence detection, cells were tripsinized, fixed for 15 min with PFA 4% and stained with the CellEvent Senescense Green Flow Cytometry Assay Kit (C10840, Invitrogen) according to manufacturer’s instructions. CellEvent Senescense Green Probe was used at a 1:500 dilution and fluorescence was detected using the filter (Ex488nm/Em530/30) BL1 with a 4-laser Attune NxT Acoustic Cytometer (Thermo Fisher Scientific). […] After 3 h, the treatments were removed, new supplemented medium was added, and cells were incubated for an additional 24 h. Finally, SA-β-Gal staining was performed using the Senescence Cells Histochemical Staining Kit (CS0030-1KT) according to the manufacturer’s instructions.

MKN45 cells = experiment: as above; type: cell-based, human; details: Fig. 3A, replicate values
Description: as §4

PANC1 cells [6] = experiment: as above; type: cell-based, human; details: Fig. 3A, replicate values
Description: as §4

[7] = read-out: IC50 concentration (± SD) at 48 h in non-tumoral cell lines
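For Fold change % Senescence in this document: IC50 concentration of each compound relative to untreated control set as 1.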

SMILES: CC(C)[NH][Pt@SP1]([I])([I])[NH]C(C)C [I6, cis-[PtI2(isopropylamine)2]]
- percentage of viable cells (CC2509 fibroblasts; dose 2.5 µM): 101.369% and 68.5642% and 72.6415%
- percentage of viable cells (CC2509 fibroblasts; dose 5 µM): 100.382% and 62.1377% and 89.6445%
- percentage of viable cells (CC2509 fibroblasts; dose 10 µM): 50.1592% and 62.7776% and 90.9953%
- percentage of viable cells (CC2509 fibroblasts; dose 25 µM): 52.2611% and 59.729% and 78.3886%
- percentage of viable cells (CC2509 fibroblasts; dose 50 µM): 30.3822% and 34.0139% and 46.6351%
- IC50 (CC2509 fibroblasts; [7]): 35 µM and 33.8 µM
- percentage of viable cells (HPDE cells; dose 2.5 µM): 88.7955% and 72.4125% and 95.3401%
- percentage of viable cells (HPDE cells; dose 5 µM): 78.4314% and 72.7203% and 72.6353%
- percentage of viable cells (HPDE cells; dose 10 µM): 57.5163% and 55.8292% and 52.5038%
- percentage of viable cells (HPDE cells; dose 25 µM): 22.9225% and 35.4367% and 19.9292%
- percentage of viable cells (HPDE cells; dose 50 µM): 8.5901% and 14.6939% and 8.599%
- IC50 (HPDE cells; [7]): 15 µM and 14.2 µM
- TEL (Fold change - ΔCt TEL), oxidative DNA damage ([1]; FPG-digested vs undigested): 0.7872 and 0.7903 and 0.6876 and 0.7373 and 0.6171 and 1.142 and 1.077 and 1.074 and 1.391
- 36B4 (Fold change - ΔCt 36B4), oxidative DNA damage [1]: 0.9227 and 0.9306 and 1.569 and 1.862 and 2.074 and 2.392 and 1.861 and 2.101 and 1.707 and 2.034
- MT-COX1 (Fold change - ΔCt MT-COX1), oxidative DNA damage [1]: 1.321 and 1.289 and 1.307 and 1.545 and 0.7235 and 0.8203 and 2.299 and 2.595 and 3.243 and 4.134
- MT-CYB (Fold change - ΔCt MT-CYB), oxidative DNA damage [1]: 1.235 and 1.231 and 1.262 and 1.5934 and 1.492 and 1.356 and 1.4814 and 1.489 and 0.5469 and 0.6464 and 1.605
- TEL (Fold change - ΔCt TEL), oxidative DNA damage ([2]; FPG-digested vs undigested): 5.579 and 4.9877 and 4.471 and 0.2398 and 0.9572 and 1.407 and 2.172 and 1.711 and 1.673 and 1.777
- 36B4 (Fold change - ΔCt 36B4), oxidative DNA damage [2]: 1.888 and 2.028 and 1.034 and 1.832 and 3.4044 and 3.392 and 3.578 and 2.951 and 2.103 and 2.482
- MT-COX1 (Fold change - ΔCt MT-COX1), oxidative DNA damage [2]: 1.444 and 1.678 and 1.516 and 1.609 and 1.88 and 0.5367 and 1.4145 and 1.209 and 1.263 and 1.421
- MT-CYB (Fold change - ΔCt MT-CYB), oxidative DNA damage [2]: 1.356 and 1.264 and 1.349 and 1.774 and 2.04 and 1.998 and 2.191 and 4.689 and 8.16 and 4.981 and 6.184
- foci/cell, share of cells in class (Suma 100) (AGS cells [3]; class 16-30 foci/cell): 23.3831
- foci/cell, number of cells in class (AGS cells [3]; class 16-30 foci/cell): 47
- foci/cell, share of cells in class (Suma 100) (AGS cells [3]; class 31-45 foci/cell): 26.3682
- foci/cell, number of cells in class (AGS cells [3]; class 31-45 foci/cell): 53
- foci/cell, share of cells in class (Suma 100) (AGS cells [3]; class 46-60 foci/cell): 13.9303
- foci/cell, number of cells in class (AGS cells [3]; class 46-60 foci/cell): 28
- foci/cell, share of cells in class (Suma 100) (AGS cells [3]; class <15 foci/cell): 29.3532
- foci/cell, number of cells in class (AGS cells [3]; class <15 foci/cell): 59
- foci/cell, share of cells in class (Suma 100) (AGS cells [3]; class >61 foci/cell): 6.965
- foci/cell, number of cells in class (AGS cells [3]; class >61 foci/cell): 14
- foci/cell: number of cells with 16-30 foci (AGS cells [3]; Fig. S4B, cell counts): 54
- foci/cell: number of cells with 31-45 foci (AGS cells [3]; Fig. S4B, cell counts): 20
- foci/cell: number of cells with 46-60 foci (AGS cells [3]; Fig. S4B, cell counts): 3
- foci/cell: number of cells with <15 foci (AGS cells [3]; Fig. S4B, cell counts): 39
- foci/cell: number of cells with >61 foci (AGS cells [3]; Fig. S4B, cell counts): 4
- foci/cell: share of cells with 16-30 foci (Suma 100) (AGS cells [3]; Fig. S4B, share of N): 45
- foci/cell: share of cells with 31-45 foci (Suma 100) (AGS cells [3]; Fig. S4B, share of N): 16.6667
- foci/cell: share of cells with 46-60 foci (Suma 100) (AGS cells [3]; Fig. S4B, share of N): 2.5
- foci/cell: share of cells with <15 foci (Suma 100) (AGS cells [3]; Fig. S4B, share of N): 32.5
- foci/cell: share of cells with >61 foci (Suma 100) (AGS cells [3]; Fig. S4B, share of N): 3.333
- foci/cell: number of cells with 16-30 foci (PANC1 cells [4]; PANC1, Fig. S4B, cell counts): 43
- foci/cell: number of cells with 31-45 foci (PANC1 cells [4]; PANC1, Fig. S4B, cell counts): 7
- foci/cell: number of cells with 46-60 foci (PANC1 cells [4]; PANC1, Fig. S4B, cell counts): 2
- foci/cell: number of cells with <15 foci (PANC1 cells [4]; PANC1, Fig. S4B, cell counts): 39
- foci/cell: number of cells with >61 foci (PANC1 cells [4]; PANC1, Fig. S4B, cell counts): 5
- foci/cell: share of cells with 16-30 foci (Suma 100) (PANC1 cells [4]; PANC1, Fig. S4B, share of N): 44.7917
- foci/cell: share of cells with 31-45 foci (Suma 100) (PANC1 cells [4]; PANC1, Fig. S4B, share of N): 7.292
- foci/cell: share of cells with 46-60 foci (Suma 100) (PANC1 cells [4]; PANC1, Fig. S4B, share of N): 2.083
- foci/cell: share of cells with <15 foci (Suma 100) (PANC1 cells [4]; PANC1, Fig. S4B, share of N): 40.625
- foci/cell: share of cells with >61 foci (Suma 100) (PANC1 cells [4]; PANC1, Fig. S4B, share of N): 5.208
- foci/cell, share of cells in class (Suma 100) (PANC1 cells [4]; class 16-30 foci/cell): 41.9753
- foci/cell, number of cells in class (PANC1 cells [4]; class 16-30 foci/cell): 34
- foci/cell, share of cells in class (Suma 100) (PANC1 cells [4]; class 31-45 foci/cell): 18.5185
- foci/cell, number of cells in class (PANC1 cells [4]; class 31-45 foci/cell): 15
- foci/cell, share of cells in class (Suma 100) (PANC1 cells [4]; class 46-60 foci/cell): 6.173
- foci/cell, number of cells in class (PANC1 cells [4]; class 46-60 foci/cell): 5
- foci/cell, share of cells in class (Suma 100) (PANC1 cells [4]; class <15 foci/cell): 22.2222
- foci/cell, number of cells in class (PANC1 cells [4]; class <15 foci/cell): 18
- foci/cell, share of cells in class (Suma 100) (PANC1 cells [4]; class >61 foci/cell): 11.1111
- foci/cell, number of cells in class (PANC1 cells [4]; class >61 foci/cell): 9
- Fold change % Senescence (AGS cells [5]): 5.13 fold change and 5.74 fold change and 3.46 fold change
- Fold change % Senescence (MKN45 cells): 5.26 fold change and 5.34 fold change and 6.2 fold change
- Fold change % Senescence (PANC1 cells [6]): 3.99 fold change and 3.23 fold change and 3.43 fold change
